The text below walks through data of patent US20070105820A1 (priority 2005, published 2007).

The target of one data set is Nav1.2 (Rattus norvegicus, UniProt P04775).
The target in a further data set is NaV1.8 (Homo sapiens, UniProt Q9Y5Y9). It is filed as cell-based.
The test system of a further data set is Nav1.4 and 1.5. The class given is cell-based, rat.
For another data set, the system named is Nav1.4. The class given is cell-based, Chinese Hamster.
A further data set deals with peripheral nerve injury. The following applies: intravenous; concentrations that do not affect general behaviour and motor function; cited from earlier work.

Molecules are shown by their SMILES.

Chain of NaV1.8 (Q9Y5Y9 whole entry, looked up): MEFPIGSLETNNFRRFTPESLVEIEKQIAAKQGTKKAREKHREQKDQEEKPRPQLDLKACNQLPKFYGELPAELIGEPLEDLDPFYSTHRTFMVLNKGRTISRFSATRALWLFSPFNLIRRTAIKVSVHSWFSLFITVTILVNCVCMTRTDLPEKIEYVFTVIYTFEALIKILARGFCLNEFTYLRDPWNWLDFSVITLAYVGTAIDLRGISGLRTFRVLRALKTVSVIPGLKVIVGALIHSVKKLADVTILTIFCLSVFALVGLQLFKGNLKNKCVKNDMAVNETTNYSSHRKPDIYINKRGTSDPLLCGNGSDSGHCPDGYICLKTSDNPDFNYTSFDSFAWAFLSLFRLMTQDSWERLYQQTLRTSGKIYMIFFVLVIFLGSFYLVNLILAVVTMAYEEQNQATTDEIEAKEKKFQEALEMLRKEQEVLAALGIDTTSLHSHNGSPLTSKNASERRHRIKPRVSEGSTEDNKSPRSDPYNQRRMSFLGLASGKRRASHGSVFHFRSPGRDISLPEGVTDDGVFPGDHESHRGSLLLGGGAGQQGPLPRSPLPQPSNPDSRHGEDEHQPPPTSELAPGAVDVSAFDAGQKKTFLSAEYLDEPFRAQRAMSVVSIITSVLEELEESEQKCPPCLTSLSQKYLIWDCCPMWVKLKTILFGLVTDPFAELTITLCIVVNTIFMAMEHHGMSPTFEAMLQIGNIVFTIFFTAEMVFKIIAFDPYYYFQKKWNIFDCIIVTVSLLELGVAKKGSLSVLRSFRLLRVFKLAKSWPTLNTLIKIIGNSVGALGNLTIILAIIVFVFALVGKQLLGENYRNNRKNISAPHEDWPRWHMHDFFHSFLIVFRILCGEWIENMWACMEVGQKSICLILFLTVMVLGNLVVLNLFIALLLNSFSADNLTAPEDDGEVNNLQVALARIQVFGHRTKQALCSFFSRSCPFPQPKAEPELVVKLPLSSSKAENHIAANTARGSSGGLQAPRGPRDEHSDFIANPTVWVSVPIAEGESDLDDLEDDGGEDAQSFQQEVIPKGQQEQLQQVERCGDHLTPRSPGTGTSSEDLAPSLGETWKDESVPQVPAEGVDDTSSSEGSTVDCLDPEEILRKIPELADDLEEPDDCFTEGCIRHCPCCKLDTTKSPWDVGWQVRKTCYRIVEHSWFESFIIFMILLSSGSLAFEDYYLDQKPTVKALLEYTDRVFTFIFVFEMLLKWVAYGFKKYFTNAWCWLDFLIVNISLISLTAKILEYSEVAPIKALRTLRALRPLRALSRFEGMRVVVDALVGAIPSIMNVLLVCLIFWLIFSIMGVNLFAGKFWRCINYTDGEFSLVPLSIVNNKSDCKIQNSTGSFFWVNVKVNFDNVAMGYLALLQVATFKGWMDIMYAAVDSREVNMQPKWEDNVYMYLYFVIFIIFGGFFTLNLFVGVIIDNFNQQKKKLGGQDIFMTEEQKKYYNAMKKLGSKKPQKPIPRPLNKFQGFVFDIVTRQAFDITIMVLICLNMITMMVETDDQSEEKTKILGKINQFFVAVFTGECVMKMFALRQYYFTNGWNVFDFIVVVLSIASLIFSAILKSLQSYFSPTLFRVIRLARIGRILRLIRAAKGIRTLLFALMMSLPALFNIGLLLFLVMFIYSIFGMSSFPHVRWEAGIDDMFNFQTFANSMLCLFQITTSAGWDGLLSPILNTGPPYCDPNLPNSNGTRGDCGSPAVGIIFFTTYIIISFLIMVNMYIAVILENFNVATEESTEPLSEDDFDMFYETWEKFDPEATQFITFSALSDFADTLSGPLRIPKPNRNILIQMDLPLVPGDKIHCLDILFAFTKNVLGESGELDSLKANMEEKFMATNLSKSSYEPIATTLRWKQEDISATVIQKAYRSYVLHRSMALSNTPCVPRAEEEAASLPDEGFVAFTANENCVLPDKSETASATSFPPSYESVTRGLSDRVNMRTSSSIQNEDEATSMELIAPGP
Chain of Nav1.2 (P04775 whole entry, looked up): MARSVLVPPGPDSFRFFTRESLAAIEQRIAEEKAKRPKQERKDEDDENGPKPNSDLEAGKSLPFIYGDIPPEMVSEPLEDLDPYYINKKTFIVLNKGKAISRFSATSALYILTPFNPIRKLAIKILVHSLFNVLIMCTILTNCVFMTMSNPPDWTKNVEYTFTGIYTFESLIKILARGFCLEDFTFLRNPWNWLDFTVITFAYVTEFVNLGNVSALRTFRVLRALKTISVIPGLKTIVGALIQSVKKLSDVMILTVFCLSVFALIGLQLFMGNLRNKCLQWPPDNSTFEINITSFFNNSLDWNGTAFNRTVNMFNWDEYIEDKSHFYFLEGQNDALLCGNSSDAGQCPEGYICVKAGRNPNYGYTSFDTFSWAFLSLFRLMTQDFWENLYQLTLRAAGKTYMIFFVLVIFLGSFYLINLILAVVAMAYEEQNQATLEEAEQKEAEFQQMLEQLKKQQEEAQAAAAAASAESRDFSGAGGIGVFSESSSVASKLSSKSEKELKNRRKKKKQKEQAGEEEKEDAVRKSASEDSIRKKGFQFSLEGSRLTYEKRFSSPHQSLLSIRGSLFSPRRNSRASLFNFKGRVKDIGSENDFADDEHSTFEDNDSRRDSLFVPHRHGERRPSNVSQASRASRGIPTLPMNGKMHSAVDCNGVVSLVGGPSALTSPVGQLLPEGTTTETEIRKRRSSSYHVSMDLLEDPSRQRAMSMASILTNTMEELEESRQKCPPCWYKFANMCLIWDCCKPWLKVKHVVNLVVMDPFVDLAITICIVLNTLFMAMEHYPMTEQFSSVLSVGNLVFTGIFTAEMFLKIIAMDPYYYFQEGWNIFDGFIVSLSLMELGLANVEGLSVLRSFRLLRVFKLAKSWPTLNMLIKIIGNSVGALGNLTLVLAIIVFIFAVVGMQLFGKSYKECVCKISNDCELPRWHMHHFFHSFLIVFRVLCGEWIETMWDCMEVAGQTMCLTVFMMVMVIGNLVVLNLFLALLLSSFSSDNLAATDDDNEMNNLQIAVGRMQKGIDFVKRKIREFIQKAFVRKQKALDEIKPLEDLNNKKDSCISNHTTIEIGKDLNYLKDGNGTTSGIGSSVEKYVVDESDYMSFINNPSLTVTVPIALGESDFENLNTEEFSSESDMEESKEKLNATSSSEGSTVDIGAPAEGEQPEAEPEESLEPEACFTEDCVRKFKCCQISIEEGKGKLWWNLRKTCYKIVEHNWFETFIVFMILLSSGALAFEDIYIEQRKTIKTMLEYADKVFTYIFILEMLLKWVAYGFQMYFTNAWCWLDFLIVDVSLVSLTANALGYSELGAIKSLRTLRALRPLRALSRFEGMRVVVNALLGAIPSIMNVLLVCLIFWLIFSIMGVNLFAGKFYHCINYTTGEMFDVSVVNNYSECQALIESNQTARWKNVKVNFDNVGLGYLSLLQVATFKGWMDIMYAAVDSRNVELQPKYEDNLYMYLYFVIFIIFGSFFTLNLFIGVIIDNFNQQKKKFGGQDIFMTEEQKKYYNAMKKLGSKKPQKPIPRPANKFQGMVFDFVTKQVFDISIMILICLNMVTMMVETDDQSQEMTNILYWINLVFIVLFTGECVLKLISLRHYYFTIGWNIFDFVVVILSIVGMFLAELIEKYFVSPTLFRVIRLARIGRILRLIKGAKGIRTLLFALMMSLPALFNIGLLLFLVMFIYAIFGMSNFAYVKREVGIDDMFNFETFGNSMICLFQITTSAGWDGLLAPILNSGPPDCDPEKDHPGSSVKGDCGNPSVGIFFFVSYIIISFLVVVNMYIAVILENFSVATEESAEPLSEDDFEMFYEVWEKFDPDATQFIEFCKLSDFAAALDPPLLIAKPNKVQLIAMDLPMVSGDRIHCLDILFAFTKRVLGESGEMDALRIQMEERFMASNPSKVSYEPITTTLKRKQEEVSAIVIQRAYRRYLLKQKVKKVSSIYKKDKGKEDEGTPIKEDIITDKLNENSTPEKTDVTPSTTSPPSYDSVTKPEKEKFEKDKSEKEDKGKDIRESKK

Consider `O=C(CC1(O)C(=O)N(CCc2ccc(Cl)cc2)c2ccccc21)c1ccco1` (centres unmarked), for which the melting point (in general, the temperature of the solid-liquid transition) is 128 to 132 °C.

`CCCCCN1C(=O)C(c2ccc3c(c2)OCO3)c2c(Cl)ccc(Cl)c21` (centres unmarked): the melting point is 84 to 86 °C.

For the compound `CCCCCN1C(=O)C(c2ccc3c(c2)OCO3)c2cccc(F)c21` (centres unmarked), the melting point is 95 to 97 °C.

`O=C1C(c2ccc3c(c2)OCO3)c2ccccc2N1Cc1ccc(Cl)cc1` (centres unmarked) returned a melting point of 161 to 163 °C.

The compound `CCCCCN1C(=O)C(c2ccc3c(c2)OCO3)c2cc(C)cc(C)c21` (centres unmarked) registered a melting point of 111 to 114 °C.

Regarding `O=C1C(c2ccc3c(c2)OCO3)c2ccccc2N1CCC1CC1` (centres unmarked), the melting point was in the range of 87 to 89 °C.

With `CCCCCN1C(=O)C(c2cc3c(cc2O)OCO3)c2ccccc21` (centres unmarked), the melting point lay in the range of 101 to 103 °C.

For the compound `O=C(CC1(O)C(=O)N(Cc2ccc(Cl)cc2)c2ccccc21)c1ccc[nH]1` (centres unmarked), the melting point is 202 °C (dec.).

`CCCCCN1C(=O)C(c2ccc3c(c2)OCO3)(c2cc3c(cc2O)OCO3)c2ccccc21` (centres unmarked) yielded a melting point of 75 to 76 °C.

The compound `CCCCCN1C(=O)C(NC(=O)OC(C)(C)C)c2ccccc21` (centres unmarked) displayed a melting point of 145 to 147 °C.

`CCCCCN1C(=O)C(N)(CC(=O)c2cccs2)c2ccccc21` (centres unmarked) came in with a melting point of 167 to 169 °C.

The compound `CCCCCN1C(=O)C(CO)(c2cc3c(cc2O)OCO3)c2ccccc21` (centres unmarked) came in with a melting point of 125 to 127 °C.

Take `Cc1ccc2c(c1)C(O)(CC(=O)c1ccco1)C(=O)N2Cc1ccc(Cl)cc1` (centres unmarked): the melting point was 183 to 185 °C.

Consider `O=C(CC1(O)C(=O)N(Cc2ccc(Cl)cc2)c2ccccc21)c1cc2ccccc2o1` (centres unmarked), for which the melting point is 185 °C (dec.).

In turn, `O=C(CC1(O)C(=O)N(Cc2ccc3c(c2)OCO3)c2ccccc21)c1ccco1` (centres unmarked) came in with a melting point of 175 to 177 °C.

As for `O=C(CC1(O)C(=O)N(Cc2ccc3c(c2)OCO3)c2ccccc21)c1cccs1` (centres unmarked), the melting point was 186 to 187 °C.

`O=C1N(CC2CC2)c2ccccc2C1(O)c1ccc2c(c1)OCO2` (centres unmarked) came in with a melting point of 142 to 145 °C.

`O=C1N(Cc2ccccn2)c2cccc(Br)c2C1(O)c1cc2c(cc1O)OCC2` (centres unmarked): the melting point is more than 225 °C.

Consider `CC(c1ccccc1)N1C(=O)C(O)(c2ccc3c(c2)OCO3)c2ccccc21` (centres unmarked), for which the melting point lay in the range of 148 to 150 °C.

As for `O=C1N(Cc2ccc(C(F)(F)F)o2)c2ccc(F)cc2C1(CO)c1cc2c(cc1O)OCO2` (centres unmarked), the melting point lay in the range of 92 to 95 °C.

The compound `O=C1N(Cc2ccc(Cl)cc2)c2ccc(OC(F)(F)F)cc2C1(O)c1ccc2c(c1)OCO2` (centres unmarked) gave a melting point of 138 to 140 °C.

As to `O=C1N(Cc2ccc(-n3cccc3)cc2)c2ccccc2C1(O)c1ccc2c(c1)OCO2` (centres unmarked), the melting point fell in the range of 195 to 198 °C.

`CCCCCN1C(=O)C(O)(c2ccc3c(c2)OCO3)c2cccc(-c3ccc(F)cc3)c21` (centres unmarked) gave a melting point of 149 to 151 °C.

`O=C1N(CCCC(F)(F)F)c2ccccc2C1(O)c1ccc2c(c1)OCO2` (centres unmarked) displayed a melting point of 119 to 121 °C.

The compound `O=C1N(Cc2ccc(Cl)cc2)c2ccccc2C1(O)c1cc(OCc2ccccc2)ccc1O` (centres unmarked) had a melting point of 172 to 175 °C.

The compound `O=C1N(CCCCCCl)c2ccccc2C1(O)c1ccc2c(c1)OCO2` (centres unmarked) registered a melting point of 131 to 132 °C.

The compound `O=C1Nc2c(-c3ccc4c(c3)OCO4)cccc2C1(O)c1ccc2c(c1)OCO2` (centres unmarked) had a melting point of 112 to 115 °C.

In the case of `O=C(CC1(O)C(=O)N(Cc2ccc(Cl)cc2)c2ccccc21)c1ccc(F)cc1` (centres unmarked), the melting point was 156 to 160 °C.

As to `CCCCCN1C(=O)C(O)(c2ccc3c(c2)OCO3)c2cc(C)cc(C)c21` (centres unmarked), the melting point was 120 to 121 °C.

Compound `CCCCC(C)N1C(=O)C(O)(c2ccc3c(c2)OCO3)c2ccccc21` (centres unmarked) had a melting point of 152 to 154 °C.

In the case of `O=C1N(Cc2ccc(Cl)cc2)c2ccc(Br)cc2C1(O)c1ccc2c(c1)OCO2` (centres unmarked), the melting point was in the range of 179 to 180 °C.

Turning to `O=C1N(Cc2ccc(Cl)cc2)c2ccc(F)cc2C1(O)c1ccc2c(c1)OCO2` (centres unmarked), the melting point lay in the range of 145 to 147 °C.

`O=C1N(Cc2ccc(Cl)cc2)c2ccccc2C1(O)CC1OCCO1` (centres unmarked) yielded a melting point of 166 to 169 °C.

On to `O=C(CC1(O)C(=O)N(Cc2ccc(Cl)cc2)c2ccccc21)c1ccccn1` (centres unmarked), for which the melting point is 185 °C (dec.).

Take `O=C(c1ccc(Cl)cc1)N1C(=O)C(O)(c2ccccc2)c2ccccc21` (centres unmarked): the melting point is 141 to 143 °C.

The compound `CCCCCN1C(=O)C(O)(c2ccc3c(c2)OCO3)c2cccc(F)c21` (centres unmarked) registered a melting point of 102 to 104 °C.

Consider `O=C1N(Cc2cc3c(cc2Cl)OCO3)c2ccccc2C1(O)c1ccc2c(c1)OCO2` (centres unmarked), for which the melting point was 153 to 155 °C.

On to `O=C1N(Cc2cccs2)c2ccccc2C1(O)c1ccc2c(c1)OCO2` (centres unmarked), for which the melting point was in the range of 141 to 142 °C.

`COc1ccccc1CN1C(=O)C(O)(c2ccc3c(c2)OCO3)c2ccccc21` (centres unmarked): the melting point lay in the range of 148 to 150 °C.

Compound `O=C1N(Cc2cccc3ccccc23)c2ccccc2C1(O)c1ccc2c(c1)OCO2` (centres unmarked) came in with a melting point of 93 to 95 °C.

Compound `O=C1N(Cc2cccc(C(F)(F)F)c2)c2ccccc2C1(O)c1ccc2c(c1)OCO2` (centres unmarked) returned a melting point of 133 to 135 °C.

As to `COc1ccc2c(c1)C(O)(c1ccc3c(c1)OCO3)C(=O)N2Cc1ccc(F)cc1` (centres unmarked), the melting point lay in the range of 127 to 129 °C.

With `O=C1N(Cc2ccc(Cl)c(C(F)(F)F)c2)c2ccccc2C1(O)c1ccc2c(c1)OCO2` (centres unmarked), the melting point is 133 to 135 °C.

For the compound `O=C1N(Cc2ccc(Cl)s2)c2ccccc2C1(O)c1ccc2c(c1)OCO2` (centres unmarked), the melting point was 164 to 165 °C.

Consider `CC(C)CCN1C(=O)C(O)(c2ccc3c(c2)OCO3)c2ccccc21` (centres unmarked), for which the melting point fell in the range of 129 to 131 °C.

Take `CCCCCCN1C(=O)C(O)(c2ccc3c(c2)OCO3)c2ccccc21` (centres unmarked): the melting point fell in the range of 88 to 90 °C.

For `O=C1N(Cc2cccc3cccnc23)c2ccccc2C1(O)c1ccc2c(c1)OCO2` (centres unmarked), the melting point is 187 to 189 °C.

The compound `CCCCCC1(O)C(=O)N(c2ccc3c(c2)OCO3)c2ccccc21` (centres unmarked) returned a melting point of 88 to 90 °C.

Turning to `CCCCCN1C(=O)C(O)(c2ccc3c(c2)OCO3)c2c(Cl)ccc(Cl)c21` (centres unmarked), the melting point was 82 to 84 °C.

`O=C1N(CCC2CC2)c2ccccc2C1(O)c1ccc2c(c1)OCO2` (centres unmarked) had a melting point of 110 to 112 °C.

With `CCCCCN1C(=O)C(O)(c2ccc3c(c2)OCO3)c2ccc(Cl)cc21` (centres unmarked), the melting point was 103 to 105 °C.

Compound `CCCCCN1C(=O)C(O)(c2ccc3c(c2)OCO3)c2cccc(C(F)(F)F)c21` (centres unmarked) displayed a melting point of 115 to 117 °C.

Take `O=C1N(Cc2ccccc2I)c2ccccc2C1(O)c1ccc2c(c1)OCO2` (centres unmarked): the melting point lay within 130 to 132 °C.

As for `O=C(CC1(O)C(=O)N(c2ccc(F)cc2)c2ccccc21)c1ccco1` (centres unmarked), the melting point was 185 °C (dec.).

On to `COc1ccc(C2(O)C(=O)N(Cc3ccc(Cl)cc3)c3ccccc32)cc1OC` (centres unmarked), for which the melting point lay in the range of 155 to 158 °C.

`CCCCCN1C(=O)C(O)(c2ccc3c(c2)OCO3)c2c(Cl)cccc21` (centres unmarked) registered a melting point of 140 to 142 °C.

Consider `COc1ccc(C2(O)C(=O)N(Cc3ccc(Cl)cc3)c3ccccc32)cn1` (centres unmarked), for which the melting point lay within 182 to 184 °C.

`O=C1N(Cc2ccc(Cl)cc2)c2ccccc2C1(O)c1ccc2c(c1)OCCCO2` (centres unmarked) returned a melting point of 188 to 190 °C.

Compound `O=C1N(Cc2ccc(Cl)cc2)c2ccccc2C1(O)c1cncnc1` (centres unmarked) registered a melting point of 155 to 157 °C.

For the compound `O=C1N(Cc2ccc(Cl)cc2)c2ccccc2C1(O)c1ccc2ncsc2c1` (centres unmarked), the melting point fell in the range of 185 to 187 °C.

`O=C1c2ccccc2CC1C1(O)C(=O)N(Cc2ccc(Cl)cc2)c2ccccc21` (centres unmarked) showed a melting point of 154 to 157 °C.

`O=C1N(Cc2ccc3c(c2)OCO3)c2ccccc2C1(O)c1ccc2ccoc2c1` (centres unmarked) yielded a melting point of more than 200 °C.

With `O=C1N(Cc2ccc(Cl)cc2)c2ccccc2C1(O)c1ccc2ccoc2c1` (centres unmarked), the melting point is > 200 °C (dec.).

In turn, `CCCCCN1C(=O)C(O)(c2ccc3ocnc3c2)c2ccccc21` (centres unmarked) returned a melting point of 189 to 191 °C.

`O=C1N(Cc2ccc(Cl)cc2)c2ccccc2C1(O)c1ccc2c(c1)OC(F)(F)O2` (centres unmarked) had a melting point of 150 to 152 °C.

With `COc1ccc(CN2C(=O)C(O)(c3ccc4c(c3)OC(F)(F)O4)c3ccccc32)cc1` (centres unmarked), the melting point is 88 to 90 °C.

Turning to `CCCCCN1C(=O)C(O)(c2cc3c(cc2CO)OCO3)c2ccccc21` (centres unmarked), the melting point lay within 120 to 122 °C.

`O=C1N(Cc2ccc(Cl)cc2)c2ccccc2C1(O)C#Cc1ccc(F)cc1` (centres unmarked) came in with a melting point of 153 to 154 °C.

For the compound `NC1=N[C@H](O)[C@H]2[C@H]3O[C@]4(O)O[C@@H]([C@@H](O)[C@@]2(N1)[C@@H]4O)[C@]3(O)CO` [TTX, tetrodotoxin], the “block of [14C] Guanidine influx by TTX” value on Nav1.2 is recorded as “Guanidine influx was completely”; on NaV1.8 it was “TTX partially blocked influx”; with Nav1.4 and 1.5 it was “partially blocked by TTX (Nav1.5”; with Nav1.4, “Guanidine influx was completely”.

For `CCN(CC)CC(=O)Nc1c(C)cccc1C` [lidocaine], in the data set with peripheral nerve injury, the “effect on ectopic activity in the injured nerve” value is reported as “suppress the ectopic activity” and the “effect on tactile allodynia” value was “reverse the tactile allodynia”.
